≈ marks a conversion by molar mass, not a printed value.
Legend:
[1] = tested on: Escherichia coli (NEWP0022); assay: Broth microdilution with TTC, E. coli; type: cell-based; conditions: 24 h, 36 °C
[2] = tested on: Staphylococcus aureus (NEWP0023); assay: Broth microdilution with TTC, S. aureus; type: cell-based; conditions: 24 h, 36 °C
[3] = tested on: HCT-116 (human colon cancer); assay: MTT growth-inhibition assay, HCT-116; type: cell-based; conditions: 72 h; for inhibition at 50 µM: read-out: Inhibition percentage (growth), HCT 116
[4] = tested on: MCF-7 (human breast cancer); assay: MTT growth-inhibition assay, MCF-7; type: cell-based; conditions: 72 h; for inhibition at 50 µM: MCF7, 50 μM, read-out: Inhibition percentage (growth), MCF-7
in vitro = conditions: hamster
Procedure: The compounds were further diluted in a culture medium to a final concentration of 10 μM.
The proliferation assay was performed based on WST-8, using the Cell Counting kit-8. After incubation with the compounds, 10 μL per well of CCK8 solution was added, and the plates were incubated in a CO2 incubator at 37 °C for 2 h. Then, the absorbance was measured at 450 nm in the SpectraMax 384 Plate Reader. Cells in 1% DMSO were used as a negative control for the assay.

Row | Structure (SMILES) | MIC [1] [mg/L] | MIC [2] [mg/L] | inhibition at 50 µM [3] [%] | inhibition at 50 µM [4] [%] | IC50 ([3]; positive control, 95% confidence interval in brackets) [µM] | IC50 ([4]; MCF7, positive control, 95% confidence interval in brackets) [µM] | viability at 10 µM (in vitro) [%]
1 | COc1c(O)cc2oc(-c3ccc(O)cc3)c(O)c(=O)c2c1O [Compound 1, 6-Methoxykaempferol] | ≥ 250 | 250 (≈ 790 µM) | 29.2 | 19.2 |  |  | 
2 | CNC(C)C1CCC(N)C(OC2C(N)CC(N)C(OC3OCC(C)(O)C(NC)C3O)C2O)O1 (stereo not drawn) [gentamicin, reference compound] | ≤ 0.5 | ≤ 0.5 |  |  |  |  | 
3 | COc1cccc2c1C(=O)c1c(O)c3c(c(O)c1C2=O)C[C@@](O)(C(=O)CO)C[C@@H]3O[C@H]1C[C@H](N)[C@H](O)[C@H](C)O1 [Doxorubicin, doxorubicin, reference compound] |  |  |  |  | 0.18 | 1.16 | 
4 | COc1c(O)cc2oc(-c3ccc(O)cc3)c(O[C@@H]3O[C@H](CO)[C@@H](O)[C@H](O)[C@H]3O)c(=O)c2c1O [Compound 5, 6-Methoxykaempferol-3-O-β-glucopyranoside] | ≥ 250 | ≥ 500 |  |  |  |  | 
5 | COc1c(O)cc2oc(-c3ccc(O)cc3)c(OC3OC(COC(=O)C=Cc4ccc(O)cc4)C(O)C(O)C3O)c(=O)c2c1O [Compound 4, 6-Methoxykaempferol-3-O-β-D-6″-(p-coumaroyl)-glycopyranoside] | ≥ 250 | ≥ 500 | 11.5 | 3.45 |  |  | 100

From article PMC12223841, “Compounds Isolated from Paepalanthus spp. (Eriocaulaceae) and Their Evaluation in Antimicrobial, Cytotoxic, and Antiviral Assays” (ACS Omega, 2025)
